Values of other authors as cited in patent publication US6080760A, “Alpha 1A adrenergic receptor antagonists” (Merck & Co., Inc., priority 1998, dated 2000).

How the values were obtained:
[1] = tested on: adrenergic receptors of the alpha1 subtype; details: reported in WO 92/0073
prostatic hyperplasia = details: reported in EP 0 204597

Row | SMILES | selective binding to adrenergic receptors of the alpha1 subtype [1] | urination in cases of prostatic hyperplasia (prostatic hyperplasia)
1 | COc1cc2nc(N3CCN(C(=O)[C@H]4CCCO4)CC3)nc(N)c2cc1OC [R(+) enantiomer of terazosin] | selective ability | –
2 | COc1cc2nc(N(C)CCCNC(=O)C3CCCO3)nc(N)c2cc1OC (centres unmarked) [alfuzosin] | – | induce urination
